Values quoted from earlier work, collected in patent US20070148100A1 (priority 2005, published 2007).

Columns and labels:
[1] = test system: cholinergic muscarinic receptors
[2] = test system: histamine receptors
[3] = test system: alpha-adrenergic receptors
[4] = biological target: T1, 5-HT1A receptor (Homo sapiens, UniProt P08908)
T1 sequence (P08908 1-422): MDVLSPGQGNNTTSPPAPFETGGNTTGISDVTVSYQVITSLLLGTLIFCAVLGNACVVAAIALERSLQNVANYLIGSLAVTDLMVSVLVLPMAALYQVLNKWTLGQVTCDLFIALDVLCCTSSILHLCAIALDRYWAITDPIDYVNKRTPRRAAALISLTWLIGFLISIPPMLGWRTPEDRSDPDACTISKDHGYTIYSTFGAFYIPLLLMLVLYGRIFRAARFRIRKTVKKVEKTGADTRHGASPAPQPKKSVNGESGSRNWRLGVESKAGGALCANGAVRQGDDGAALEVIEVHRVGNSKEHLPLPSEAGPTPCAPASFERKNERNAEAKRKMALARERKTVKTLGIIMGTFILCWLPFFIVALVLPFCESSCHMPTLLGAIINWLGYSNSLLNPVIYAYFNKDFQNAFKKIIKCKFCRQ

[5] = biological target: 5-HT2A receptor (Homo sapiens, UniProt P28223)
5-HT2A receptor, sequence (P28223 whole entry): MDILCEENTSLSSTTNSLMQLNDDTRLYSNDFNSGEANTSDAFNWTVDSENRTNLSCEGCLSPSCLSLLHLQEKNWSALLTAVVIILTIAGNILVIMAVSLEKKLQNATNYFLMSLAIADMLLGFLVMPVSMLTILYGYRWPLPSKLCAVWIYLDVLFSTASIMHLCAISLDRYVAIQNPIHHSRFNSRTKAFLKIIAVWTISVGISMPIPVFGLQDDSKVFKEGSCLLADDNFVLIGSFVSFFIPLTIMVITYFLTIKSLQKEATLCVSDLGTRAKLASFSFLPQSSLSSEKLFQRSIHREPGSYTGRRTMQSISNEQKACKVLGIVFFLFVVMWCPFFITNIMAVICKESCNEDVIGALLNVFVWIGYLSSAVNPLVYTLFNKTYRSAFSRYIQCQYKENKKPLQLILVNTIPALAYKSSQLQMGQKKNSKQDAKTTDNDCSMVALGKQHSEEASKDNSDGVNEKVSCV

## O=C1CCc2ccc(OCCCCN3CCN(c4cccc(Cl)c4Cl)CC3)cc2N1 [Aripiprazole, 7-[4-[4-(2,3-dichlorophenyl)-1-piperazinyl]butoxy]-3,4-dihydrocarbostyril]
In vivo
  elimination half-life: approximately 75 hours
  kinetics (linearity): linear kinetics
Oral tablets
  bioavailability: about 90%
[1]
  affinity for cholinergic muscarinic receptors: no appreciable affinity
[2]
  affinity for histamine receptors: moderate affinity
[3]
  affinity for alpha-adrenergic receptors: moderate affinity
[4]
  activity at the 5-HT1A receptor: partial agonist
[5]
  activity at the 5-HT2A receptor: antagonist profile
